Laboratory results: patent publication US11413267B2, “Methods and compositions for inhibition of ATR and FANCD2 activation” (priority 2012, dated 2022)

How the values were obtained:
[1] = system: ATR-dependent Chk1 phosphorylation; experiment: Immunoblot of DNA damage-induced Chk1 phosphorylation; format: cell-based, human
Text: (§1) We hypothesized that genes with functions associated with DNA damage checkpoints and/or DNA repair might be targeted by benzopyran-4-one derivatives. To test this hypothesis, we assessed the effects of benzopyran-4-one derivatives on DDR induced by H2O2. […] In response to DNA double-strand breaks (DSBs), FANCD2 is known to be monoubiquitinated on K561 (FANCD2-Ub) in an ATR-dependent manner to stimulate repair (Andreassen P R, et al. Genes Dev 2004).
(§2) To elucidate the specificity of the benzopyran-4-one derivatives inhibition on ATR-mediated signaling, we compared the change between cells treated with benzopyran-4-one derivatives or the ATM-specific inhibitor KU55933 before the induction of DDR.
(§3) MDA-MB-231 (breast adenocarcinoma; ATCC HTB-26, BCRC 60425) and A549 (lung adenocarcinoma; ATCC CCL-185, BCRC 60074) human cell lines were purchased from Bioresource Collection and Research Center (BCRC, Hsinchu, Taiwan), and were authenticated by American Type Culture Collection (ATCC, Manassas, Va.). U2OS (osteosarcoma), HeLa (cervical adenocarcinoma), and HEK 293T (embryonic kidney cells) human cell lines were provided by Dr. Sheau-Yann Shieh (Institute of Molecular Biology, Academia Sinica, Taipei, Taiwan). Cells were maintained in Dulbecco's modified Eagle's medium (DMEM, Sigma-Aldrich) supplemented with 10% fetal bovine serum (FBS) (Gibco). […] For UV irradiation treatment, the cells were irradiated for 10 J/m^2 by a cross-linker (UVP) 1 h prior to analysis.
(§4) Cell lysate preparations, gel electrophoresis, and immunoblotting were performed as previously described (23). The binding of primary antibodies were detected by horseradish peroxidase-coupled secondary antibodies (Jackson ImmunoResearch) followed by enhanced chemiluminescence (ECL) (Millipore). The images of non-saturated bands were captured using a luminescent image analyzer (LAS-4000 mini; Fujifilm). The antibodies used in this study are listed in supplementary materials.

Ad-GFP virus replication = Ad-GFP virus replication (supernatant re-infection of HEK293A cells); format: cell-based, adenovirus
Procedure: Ideally, the Ad-GFP virus is replicated within HEK293A cells. To test the effect of benzopyran-4-one derivative compounds on Ad-GFP virus replication, the same virus infection and compound treatment are performed as shown in FIG. 26. At the end of a 24-hour experiment, we collected the Ad-GFP virus from each well of Ad-GFP infected HEK293A using two freeze-thaw cycles and then collected the supernatants. An equal amount of supernatants from each well were then infected with the HEK293A cells, which were newly-prepared 1 day before infection in a 96-well plate at a density of 5×10^4 per well. Finally, the GFP cell images were obtained using the inverted fluorescence microscope and quantified by analyzing the MFI using flow cytometry for each well of cells.

[2] = system: DDR signaling (Chk2 Thr68, Chk1 Ser345 phosphorylation); experiment: Immunoblot of DDR signaling after compound alone (no DNA damage); format: cell-based, human
Procedure: Since mitomycin C can induce DDR in many cancers, we investigated what kind of DDR signaling was activated by Protoapigenone (I-1). […] We repeated the benzopyran-4-one derivatives experiment on lung and breast carcinoma cell lines A549 and MDA-MB-231 cells, respectively, and obtained similar results. Consistently, no marked changes in Chk1 and Chk2 phosphorylation signaling were detected even at high doses of either drug for as long as 8 h after drug treatment (FIGS. 3(a) and 3(b)).
as §4

[3] = system: ATM-mediated Chk2 phosphorylation; experiment: Immunoblot of DNA damage-induced Chk2 phosphorylation / ATM autophosphorylation; format: cell-based, human; conditions: for UV-induced or H2O2-induced Chk2 phosphorylation: HEK293T cells with siRNAs against ATM and DNA-PKcs
Text: as §1, §2, §3, §4

HeLa cells = experiment: DNA homologous recombination repair assay (pHPRT-DRGFP / I-SceI); format: cell-based, human; conditions: for GFP cell (%): chromosomal breaks generated by I-SceI endonuclease expression, 48 h
Text: ATR function is also linked to DNA repair via its coupled targets (Sorensen C S, et al. Nat Cell Biol 2005). To examine the effect of benzopyran-4-one derivatives treatment on DNA repair, we performed a homologous recombination repair (HRR) assay in HeLa cells. DNA constructs of the recombination substrate pHPRT-DRGFP, in which the I-SceI site lies within 1 copy of 2 mutated tandem repeated GFP genes, and the I-SceI endonuclease expression vector pCBASceI, were originally constructed by Dr. M. Jasin (25). In brief, we generated a stable pHPRT-DRGFP construct in HeLa cells, and evaluated the chromosomal breaks generated by I-SceI endonuclease expression. Six hours after pCBASceI was delivered into the cells, complete medium with or without Protoapigenone (I-1) or compound II-1 was replaced onto the cells. Forty-eight hours after delivery, the efficiency of chromosomal HRR was obtained as the percentage of GFP-positive cells, which was assessed by flow cytometry.

synchronized cells = experiment: Double-thymidine cell cycle synchronization assay (flow cytometry); format: cell-based; conditions: for Percentage of G2/M cells compared with control group, in words: 9 hours of treatment after release
Text: ATR are involved in DNA replication. […] In the results of double-thymidine cell cycle synchronization assay, according to the Table 4 which sorted out from FIGS. 21-23, the unsynchronized cells (FIG. 21(a)) become synchronization by using this method, and 97% of cells were stopped at G1/S boundary after two cycles of thymidine blocks (FIG. 21(b)). Those synchronized cells released from thymidine blockade and allowed progress into S phase in presence or absence of protoapigenone (I-1) and compound II-1.
To evaluate the effect of DNA damage checkpoint activation on cell cycle distribution, the cells were harvested at indicated time points and fixed with methanol for at least 2 h. The DNA was then stained with a solution containing propidium iodide (PI) and RNase A (Sigma-Aldrich). Fluorescently labeled cells were subsequently analyzed by the flow cytometer (LSR II; BD Biosciences) with a suitable selection of excitation and emission wavelengths. The percentages of different fluorescent cell populations were analyzed using WinMDI Ver. 2.9 (The Scripps Research Institute).

[4] = A594 cells, 0.1 mM H2O2 for 2 h
[5] = post-treatment 2 hours after infection, re-infection
[6] = pre-treatment, 24 hours after re-infection
[7] = 6 hrs after release from synchronization
[8] = 9 hrs after release from synchronization

Row | SMILES | MFI of GFP protein (Ad-GFP virus replication; [5]) | Number of GFP cells (Ad-GFP virus replication; [5]) | MFI of GFP protein (Ad-GFP virus replication; [6]) | Number of GFP cells (Ad-GFP virus replication; [6]) | UV-induced or H2O2-induced Chk2 phosphorylation [3] | Cell cycle G1 (synchronized cells; [7]) [%] | Cell cycle G2M (synchronized cells; [7]) [%] | Cell cycle S (synchronized cells; [7]) [%] | Percentage of G2/M cells compared with control group, in words (synchronized cells) | Cell cycle G1 (synchronized cells; [8]) [%] | Cell cycle G2M (synchronized cells; [8]) [%] | Cell cycle S (synchronized cells; [8]) [%] | other results
1 | O=C1C=CC(O)(c2cc(=O)c3c(O)cc(O)cc3o2)C=C1 [Compound I-1, Protoapigenone] | significant decreased | significant decreased | significantly decreased | significantly decreased | not altered | 25.45 | 0.41 | 69.13 | significantly reduce | 21.41 | 16.46 | 60.89 | Reversal of inhibition of Chk1 phosphorylation by okadaic acid or MG132 pretreatment ([1]; 50 μM OA or 20 μM MG132, 10 J/m^2 UV 1 h): could not reverse; Chk1 phosphorylation [1, 4]: inhibit; Reversal of Chk1 phosphorylation inhibition by overexpression of ATR mediators ([1]; HEK293T cells overexpressing ATRIP, TopBP1, claspin or ATR, 10 J/m^2 UV, 1 h): overexpression of ATRIP or TopBP1 did not reverse the inhibitory effect of Protoapigenone (I-1) on Chk1 phosphorylation, whereas overexpression of claspin or ATR did; p53 protein accumulation ([2]; HEK293T cells): slight accumulation of the p53 protein; Change of putative DDR signaling (phosphorylation of Chk2 Thr68 and Chk1 Ser345) ([2]; HEK293T cells, high doses (10 μM, FIG. 2)): did not induce noticeable changes; MAPKAPK2 phosphorylation (p38 MAPK target) ([2]; HEK293T cells, time after exposure): phosphorylated starting as early as 2 h; ATM autophosphorylation [3, 4]: not affected; Chk2 phosphorylation [3, 4]: promote; GFP cell (%) (HeLa cells; 2.0 μM): 0.807 ± 0.0403%; GFP cell (%) (HeLa cells; 4.0 μM): 0.213 ± 0.0105%; Repair of chromosomal breaks by HRR, in words (HeLa cells; low concentrations): dose-dependently inhibited
2 | O=C1C=CC(O)(c2cc(=O)c3c(ccc4ccccc43)o2)C=C1 [Compound II-1, 3-(1-hydroxy-4-oxo-cyclohexa-2,5-dienyl)-1H-benzo[f]chromen-1-one] | significant decreased | significant decreased | significantly decreased | significantly decreased | increased | 21.72 | 4.59 | 72.01 | significantly reduce | 15.50 | 20.45 | 63.06 | Potency in inhibiting Chk1 phosphorylation, comparison ([1]; FIGS. 6(a), 6(b)): more potent than Protoapigenone (I-1); Chk2 activation by compound itself ([2]; high dose, no DNA damage (FIGS. 3(a), 3(b))): slightly induces; Dose lower than that of Protoapigenone (I-1) for similar HRR effects (HeLa cells): 10 fold; GFP cell (%) (HeLa cells; 0.2 μM): 0.703 ± 0.0304%; GFP cell (%) (HeLa cells; 0.4 μM): 0.17%
